Source: US8835134B2, “Cycloastragenol monoglucoside, preparation, pharmaceutical composition and application thereof” (Tianjin Institute of Pharmaceutical Research, priority 2007, dated 2014)

System: anesthetized open-chest dogs
Experiment: Hemodynamics of anesthetized open-chest dogs, intravenous infusion
Format: in vivo, mongrel dogs
Conditions: 0.3 mg/kg iv
Experimental: The animals were anesthetized by intravenous injection of 30 mg/kg sodium pentobarbital, tracheally intubated, and mechanically ventilated with positive air pressure. Left thoracotomy was performed through the fourth intercostal space and the heart was suspended in a pericardial cradle, the aortic root was isolated and a probe of blood flow meter (12 or 14 mm in diameter) was fixed to measure the aortic blood flow as a representation of cardiac output (CO), the circumflex branch of left coronary artery was isolated and a probe of blood flow meter (2 or 2.5 mm in diameter) was fixed to measure the coronary blood flow (CBF). A polyethylene catheter filled with heparin physiological saline was inserted through cardiac apex into the left ventricle to measure the left ventricular pressure (LVP) and left ventricular end-diastolic pressure (LVEDP), Peak positive and peak negative first derivatives of the LVP (+ LVdp/dt and − LVdp/dt) were calculated with the Acknowledge software. The systolic blood pressure (SBP), diastolic blood pressure (DBP) and mean arterial pressure (MAP) were measured by polyethylene catheter via the femoral artery, ECG □ was measured by a AC-601G ECG amplifier. The above-mentioned analog signal was input into a data acquisition workstation (MP100, BIOPAC Systems, USA) to a computer running Acknowledge (version 3.7.1).
After surgery, various indexes before administration were recorded until the indexes were stable, and then intravenous infusion administration was conducted. Thirty dogs were divided into five groups (six dogs in each group), the experiment groups were given 0.15, 0.3, 0.6 mg/kg of ASP-[…] respectively, the normal control group was given 1 ml/kg of solvent, and the positive control group was given 0.3 mg/kg of astragaloside IV. The delivery volumes were 15 ml for each dog was and the delivery velocity was 1 ml/min. The indexes were recorded at 5, 10, 15, 20, 30, 45, 60, 90 and 120 mins after drug administration. At the end of experiment, the hearts were excised and weighted. The myocardial blood flow for per hectogram (CF), coronary resistance (CR), cardiac index (CI), left ventricular work (LVW) and total peripheral resistance (TPR) were calculated according to the following formulae: CF=CBF×[…]/heart weight CR=MAP/CF CI=CO/0.11×(body weight)^2/3 LVW=CO×(MAP−5)×1.052×0.0136 TPR=MAP×79.92/CO
Data are expressed as mean±SD ( x±s), the paired t-test was used to compare the significance between before and after administration, the unpaired t-test was adopted for comparison between groups.

CC(C)(O)[C@@H]1CC[C@](C)([C@H]2[C@@H](O)C[C@@]3(C)[C@@H]4C[C@H](O[C@@H]5O[C@H](CO)[C@@H](O)[C@H](O)[C@H]5O)[C@H]5C(C)(C)[C@@H](O[C@@H]6OC[C@@H](O)[C@H](O)[C@H]6O)CC[C@@]56C[C@@]46CC[C@]23C)O1 [astragaloside IV, reference compound]
+LVdp/dtmax: significantly increased
CO, CI and TPR: no significant effect
LVEDP: significantly decreased
LVSP, LVW and −LVdp/dtmax: no significant change
CF (5 min after administration): 57.2 ± 14.0 ml/min/100 g
CF change vs before administration (5 min after administration): (0.2 ± 3.5) ml/min/100 g
CI (5 min after administration): 2.20 ± 0.59 L/min/m^2
CI change vs before administration (5 min after administration): (0.06 ± 0.10) L/min/m^2
CO (5 min after administration): 1.23 ± 0.36 L/min
CO change vs before administration (5 min after administration): (0.03 ± 0.05) L/min
CR (5 min after administration): 1.36 ± 0.47 mmHg/ml/min/100 g
CR change vs before administration (5 min after administration): (−0.05 ± 0.07) mmHg/ml/min/100 g
LVEDP (5 min after administration): 1.6 ± 1.4 mmHg
LVEDP change vs before administration (5 min after administration): (−0.80 ± 0.81) mmHg
LVP (5 min after administration): 104 ± 10 mmHg
LVP change vs before administration (5 min after administration): (1.1 ± 6.5) mmHg
LVW (5 min after administration): 1.22 ± 0.47 kg · m
LVW change vs before administration (5 min after administration): (0.01 ± 0.05) kg · m
TPR (5 min after administration): 5046 ± 1572 dyn · s/cm^5
TPR change vs before administration (5 min after administration): (−178 ± 384) dyn · s/cm^5
dp/dt (5 min after administration): 1082 ± 176 mmHg/s
dp/dt change vs before administration (5 min after administration): (27 ± 75) mmHg/s
−dp/dt (5 min after administration): −878 ± 179 mmHg/s
−dp/dt change vs before administration (5 min after administration): (−43 ± 104) mmHg/s
CF (10 min after administration): 59.0 ± 20.5 ml/min/100 g
CF change vs before administration (10 min after administration): (2.0 ± 6.5) ml/min/100 g
CI (10 min after administration): 2.21 ± 0.52 L/min/m^2
CI change vs before administration (10 min after administration): (0.07 ± 0.08) L/min/m^2
CO (10 min after administration): 1.24 ± 0.32 L/min
CO change vs before administration (10 min after administration): (0.04 ± 0.05) L/min
CR (10 min after administration): 1.39 ± 0.45 mmHg/ml/min/100 g
CR change vs before administration (10 min after administration): (−0.01 ± 0.12) mmHg/ml/min/100 g
LVEDP (10 min after administration): 1.7 ± 1.3 mmHg
LVEDP change vs before administration (10 min after administration): (−0.73 ± 0.54) mmHg
LVP (10 min after administration): 105 ± 10 mmHg
LVP change vs before administration (10 min after administration): (2.5 ± 11.7) mmHg
LVW (10 min after administration): 1.26 ± 0.39 kg · m
LVW change vs before administration (10 min after administration): (0.05 ± 0.13) kg · m
TPR (10 min after administration): 5162 ± 1495 dyn · s/cm^5
TPR change vs before administration (10 min after administration): (−62 ± 517) dyn · s/cm^5
dp/dt (10 min after administration): 1141 ± 136 mmHg/s
dp/dt change vs before administration (10 min after administration): (86 ± 61) mmHg/s
−dp/dt (10 min after administration): −882 ± 163 mmHg/s
−dp/dt change vs before administration (10 min after administration): (−46 ± 118) mmHg/s
CF (15 min after administration): 57.0 ± 22.3 ml/min/100 g
CF change vs before administration (15 min after administration): (0.0 ± 7.2) ml/min/100 g
CI (15 min after administration): 2.16 ± 0.51 L/min/m^2
CI change vs before administration (15 min after administration): (0.02 ± 0.07) L/min/m^2
CO (15 min after administration): 1.21 ± 0.30 L/min
CO change vs before administration (15 min after administration): (0.01 ± 0.04) L/min
CR (15 min after administration): 1.46 ± 0.50 mmHg/ml/min/100 g
CR change vs before administration (15 min after administration): (0.06 ± 0.15) mmHg/ml/min/100 g
LVEDP (15 min after administration): 1.0 ± 1.2 mmHg
LVEDP change vs before administration (15 min after administration): (−1.40 ± 0.54) mmHg
LVP (15 min after administration): 103 ± 12 mmHg
LVP change vs before administration (15 min after administration): (−0.3 ± 12.2) mmHg
LVW (15 min after administration): 1.22 ± 0.35 kg · m
LVW change vs before administration (15 min after administration): (0.01 ± 0.16) kg · m
TPR (15 min after administration): 5319 ± 1695 dyn · s/cm^5
TPR change vs before administration (15 min after administration): (95 ± 662) dyn · s/cm^5
dp/dt (15 min after administration): 1167 ± 157 mmHg/s
dp/dt change vs before administration (15 min after administration): (112 ± 31) mmHg/s
−dp/dt (15 min after administration): −847 ± 141 mmHg/s
−dp/dt change vs before administration (15 min after administration): (−12 ± 124) mmHg/s
CF (20 min after administration): 59.1 ± 21.2 ml/min/100 g
CF change vs before administration (20 min after administration): (2.1 ± 7.3) ml/min/100 g
CI (20 min after administration): 2.15 ± 0.44 L/min/m^2
CI change vs before administration (20 min after administration): (0.00 ± 0.10) L/min/m^2
CO (20 min after administration): 1.20 ± 0.27 L/min
CO change vs before administration (20 min after administration): (0.00 ± 0.06) L/min
CR (20 min after administration): 1.37 ± 0.42 mmHg/ml/min/100 g
CR change vs before administration (20 min after administration): (−0.03 ± 0.16) mmHg/ml/min/100 g
LVEDP (20 min after administration): 1.0 ± 1.1 mmHg
LVEDP change vs before administration (20 min after administration): (−1.46 ± 0.68) mmHg
LVP (20 min after administration): 104 ± 11 mmHg
LVP change vs before administration (20 min after administration): (1.2 ± 16.2) mmHg
LVW (20 min after administration): 1.2 ± 0.31 kg · m
LVW change vs before administration (20 min after administration): (−0.01 ± 0.22) kg · m
TPR (20 min after administration): 5203 ± 1464 dyn · s/cm^5
TPR change vs before administration (20 min after administration): (−21 ± 735) dyn · s/cm^5
dp/dt (20 min after administration): 1165 ± 112 mmHg/s
dp/dt change vs before administration (20 min after administration): (110 ± 67) mmHg/s
−dp/dt (20 min after administration): −875 ± 105 mmHg/s
−dp/dt change vs before administration (20 min after administration): (−39 ± 142) mmHg/s
CF (30 min after administration): 57.8 ± 16.6 ml/min/100 g
CF change vs before administration (30 min after administration): (0.8 ± 3.2) ml/min/100 g
CI (30 min after administration): 2.08 ± 0.48 L/min/m^2
CI change vs before administration (30 min after administration): (−0.07 ± 0.17 ^ L/min/m^2
CO (30 min after administration): 1.16 ± 0.29 L/min
CO change vs before administration (30 min after administration): (−0.04 ± 0.09) L/min
CR (30 min after administration): 1.41 ± 0.47 mmHg/ml/min/100 g
CR change vs before administration (30 min after administration): (0.00 ± 0.13) mmHg/ml/min/100 g
LVEDP (30 min after administration): 1.0 ± 1.4 mmHg
LVEDP change vs before administration (30 min after administration): (−1.44 ± 0.90) mmHg
LVP (30 min after administration): 102 ± 11 mmHg
LVP change vs before administration (30 min after administration): (−0.7 ± 13.7) mmHg
LVW (30 min after administration): 1.19 ± 0.40 kg · m
LVW change vs before administration (30 min after administration): (−0.02 ± 0.15) kg · m
